Measured values published in the CombiSolv-Exp solvation set (Vermeire and Green 2021).

Experiment: solvent given as SMILES

CCI
Conditions | solvation free energy, 298 K [kcal/mol]
in Brc1cccc2ccccc12 | -3.97
in Brc1ccccc1 | -4.23
in C1CCOC1 | -4.45
in C1COCCO1 | -4.21
in C=CCCCCCCCCCCCCCC | -3.53
in CC1COC(=O)O1 | -3.71
in CC#N | -3.81
in CC(=O)N(C)C | -3.97
in CC(=O)OCc1ccccc1 | -3.91
in CC(=O)c1ccccc1 | -4.05
in CC(C)(C)O | -3.48
in CC(C)=O | -4
in CC(C)CC(C)(C)C | -3.61
in CC(C)CCO | -3.75
in CC(C)O | -3.56
in CCC#N | -3.94
in CCC(C)=O | -4.1
in CCCBr | -4.31
in CCCCCC | -3.73
in CCCCCCC | -3.68
in CCCCCCCC | -3.66
in CCCCCCCCO | -3.53
in CCCCCl | -4.15
in CCCCO | -3.63
in CCCO | -3.55
in CCO | -3.57
in CCOC(=O)c1ccccc1 | -3.99
in CCOC(C)=O | -4.04
in CCOCC | -3.78
in CN(C)C=O | -3.83
in CO | -3.58
in CS(C)=O | -3.82
in Cc1ccc(C)cc1 | -4.14
in Cc1ccccc1 | -4.2
in ClC1CCCCC1 | -4.19
in ClC(Cl)(Cl)Cl | -4.17
in ClC(Cl)C(Cl)Cl | -4.41
in ClC(Cl)Cl | -4.44
in ClCCCl | -4.2
in ClCCl | -4.12
in Clc1ccccc1 | -4.22
in Ic1ccccc1 | -4.29
in N#Cc1ccccc1 | -4
in O | -0.74
in O=C1CCCCC1 | -4.18
in c1ccc2ncccc2c1 | -3.93
in c1ccccc1 | -4.32

Nc1ccc(S(=O)(=O)Nc2ccccn2)cc1
Conditions | solvation free energy, 298 K [kcal/mol]
in O | -18.7

O=[N+]([O-])c1cccc(CO)c1
Conditions | solvation free energy, 298 K [kcal/mol]
in O | -9.19

FC(F)(F)C(Cl)Br (stereo not given)
Conditions | solvation free energy, 298 K [kcal/mol]
in C1CCOC1 | -5.01
in C1COCCO1 | -4.41
in CC(C)=O | -4.77
in COC(C)(C)C | -4.69
in COC(C)=O | -4.61

CCOCCOC
Conditions | solvation free energy, 298 K [kcal/mol]
in ClC(Cl)(Cl)Cl | -5.85

CC(C)Cc1ccccc1
Conditions | solvation free energy, 298 K [kcal/mol]
in O | 0.19

CCCOC=O
Conditions | solvation free energy, 298 K [kcal/mol]
in CCCCCCCCCCCCCCCC | -3.29
in CCCCCCCCO | -3.64
in O | -2.51
in [2H]O[2H] | -2.55

CCCCCC(C)O (stereo not given)
Conditions | solvation free energy, 298 K [kcal/mol]
in O | -3.88

COC(=O)C(F)(F)F
Conditions | solvation free energy, 298 K [kcal/mol]
in O | -1.1

CC(=O)CC(C)=O
Conditions | solvation free energy, 298 K [kcal/mol]
in C1CCCCC1 | -4.89
in CC(C)O | -5.03
in CCC(C)O | -5.05
in CCCO | -5.03
in CCO | -5.43
in O | -4.84

Clc1cc2c(cc1Cl)Oc1c(Cl)c(Cl)c(Cl)c(Cl)c1O2
Conditions | solvation free energy, 298 K [kcal/mol]
in O | -3.71

c1ccc2cc3ccccc3cc2c1
Conditions | solvation free energy, 298 K [kcal/mol]
in Brc1ccccc1 | -11.6
in C1CCOC1 | -11.9
in C1COCCO1 | -11.5
in CC(=O)N(C)C | -11.5
in CC(C)(C)O | -9.71
in CC(C)=O | -11.2
in CC(C)CC(C)(C)C | -9.93
in CC(C)CC(C)O | -9.89
in CC(C)CCCC(C)CCO | -10.2
in CC(C)CCO | -9.93
in CC(C)CO | -9.77
in CC(C)O | -10
in CC(C)OC(C)C | -10.5
in CC(C)OCCO | -10.8
in CC(O)COC(C)(C)C | -10.5
in CCC(C)(C)O | -9.99
in CCC(C)=O | -11.3
in CCC(C)O | -9.9
in CCCC(=O)OC | -11.2
in CCCC(C)CO | -10
in CCCC(C)O | -9.99
in CCCCC(CC)CO | -10.1
in CCCCCC | -10.2
in CCCCCCC | -10.2
in CCCCCCCC | -10.2
in CCCCCCCCCC | -10.3
in CCCCCCCCCCO | -10.5
in CCCCCCCCO | -10.3
in CCCCCCCO | -10.3
in CCCCCCO | -10.3
in CCCCCO | -10.2
in CCCCCOC(C)=O | -11.1
in CCCCCl | -11.2
in CCCCO | -10.1
in CCCCOC(C)=O | -11.1
in CCCCOCCCC | -10.6
in CCCCOCCO | -10.8
in CCCO | -10
in CCCOC(C)=O | -11.1
in CCCOCCO | -10.8
in CCO | -10.4
in CCOC(C)=O | -11.1
in CCOCC | -10.9
in CCOCCO | -10.7
in CN1CCCC1=O | -12
in CN(C)C=O | -11.6
in CNC=O | -10.4
in CO | -9.89
in COC(C)(C)C | -10.7
in COC(C)=O | -11.1
in COC(C)CCO | -10.7
in COCCO | -10.8
in Cc1ccc(C)cc1 | -11.2
in Cc1cccc(C)c1 | -11.3
in Cc1ccccc1C | -11.5
in ClC(Cl)(Cl)Cl | -11.2
in ClC(Cl)Cl | -11.5
in ClCCl | -11.8
in Clc1ccccc1 | -11.5
in Fc1ccccc1 | -11.3
in N#Cc1ccccc1 | -11.4
in O | -4.12
in O=C1CCCCC1 | -11.6

CC(=O)c1cccnc1
Conditions | solvation free energy, 298 K [kcal/mol]
in O | -8.26

CC(=O)OCC(COC(C)=O)OC(C)=O
Conditions | solvation free energy, 298 K [kcal/mol]
in O | -8.84

CCCCCCNCc1ccc(C)cc1
Conditions | solvation free energy, 298 K [kcal/mol]
in O | -4.97

Cc1ccc(C(=O)N(C)C)cc1
Conditions | solvation free energy, 298 K [kcal/mol]
in O | -9.76

CCC(C)OC(C)CC (stereo not given)
Conditions | solvation free energy, 298 K [kcal/mol]
in O | -0.8

ClC(Cl)=C(Cl)C(Cl)=C(Cl)Cl
Conditions | solvation free energy, 298 K [kcal/mol]
in O | -0.46

CCCCCCC(=O)O
Conditions | solvation free energy, 298 K [kcal/mol]
in O | -6.12

C#C
Conditions | solvation free energy, 298 K [kcal/mol]
in C1COCCO1 | -1.71
in CC(C)=O | -1.83
in CC(C)CC(C)(C)C | -0.37
in CCCCCC | -0.52
in CCCCO | -0.82
in CN(C)C=O | -1.75
in CO | -1.42
in COC(C)=O | -1.76
in Cc1ccc(C)cc1 | -0.8
in ClC(Cl)(Cl)Cl | -0.65
in O | 0

CCCCCCCC
Conditions | solvation free energy, 298 K [kcal/mol]
in Brc1ccccc1 | -5.05
in C1CCCCC1 | -5.54
in C1CCOC1 | -5.32
in C1COCCO1 | -4.49
in C=CCCCC | -5.39
in C=CCCCCCC | -5.28
in C=CCCCCCCCC | -5.23
in CC1COC(=O)O1 | -3.01
in CC#N | -3.63
in CC(=O)N(C)C | -3.96
in CC(=O)O | -3.96
in CC(=O)c1ccccc1 | -4.29
in CC(C)(C)O | -4.62
in CC(C)=O | -4.41
in CC(C)CC(C)(C)C | -5.32
in CC(C)CCCC(C)CCCC(C)CCCCC(C)CCCC(C)CCCC(C)C | -4.83
in CC(C)CCO | -4.61
in CC(C)O | -4.4
in CC(C)OC(C)C | -5.29
in CC(Cl)Cl | -4.66
in CC(O)CO | -2.84
in CCBr | -5.39
in CCC(C)(C)OC | -5.28
in CCC(C)=O | -4.69
in CCCC#N | -4.33
in CCCC(=O)OCC | -4.94
in CCCC(C)=O | -4.81
in CCCCC | -5.43
in CCCCC(CC)COC(=O)CCCCC(=O)OCC(CC)CCCC | -4.69
in CCCCC(CC)COC(=O)c1ccccc1C(=O)OCC(CC)CCCC | -4.43
in CCCCCC | -5.42
in CCCCCC(C)=O | -4.83
in CCCCCCC | -5.37
in CCCCCCCCC | -5.23
in CCCCCCCCC=CCCCCCCCC(=O)OCC(COC(=O)CCCCCCCC=CCCCCCCCC)OC(=O)CCCCCCCC=CCCCCCCCC | -4.75
in CCCCCCCCCC | -5.2
in CCCCCCCCCCCC | -5.11
in CCCCCCCCCCCCCCCC | -5.01
in CCCCCCCCCCCCO | -4.65
in CCCCCCCCCCO | -4.53
in CCCCCCCCO | -4.62
in CCCCCCOC(C)=O | -4.92
in CCCCCO | -4.62
in CCCCO | -4.49
in CCCCOC(=O)c1ccccc1C(=O)OCCCC | -4.5
in CCCCOC(C)=O | -4.85
in CCCCOCCCC | -5.25
in CCCO | -4.41
in CCN1CCCC1=O | -4.09
in CCN(CC)C(C)=O | -4.35
in CCN(CC)CC | -5.5
in CCNC(C)=O | -4.09
in CCNC=O | -3.79
in CCO | -4.3
in CCOC(=O)c1ccccc1C(=O)OCC | -3.95
in CCOC(C)=O | -4.71
in CCOCC | -5.41
in CCOCCOCCOCC | -4.65
in CCOc1ccccc1 | -4.77
in CN1CCCC1=O | -3.77
in CN1CCCCC1=O | -4.02
in CN(C)C=O | -3.75
in CN(C)P(=O)(N(C)C)N(C)C | -4.26
in CNC=O | -3.34
in CO | -3.86
in COC(C)=O | -4.49
in COCCO | -3.76
in COCCOCCOCCOCCOC | -4.01
in COc1ccccc1 | -4.7
in CS(C)=O | -2.79
in Cc1ccc(C)cc1 | -5.28
in Cc1cccc(C)n1 | -4.92
in Cc1cccc(O)c1 | -4.08
in Cc1ccccc1 | -5.29
in Cc1ccccn1 | -4.78
in ClC(Cl)(Cl)Cl | -5.45
in ClC(Cl)Cl | -5.32
in ClCCCl | -4.71
in ClCCl | -5.08
in Clc1ccccc1 | -5.21
in FC(F)(F)C(F)(F)C(F)(F)C(F)(F)C(F)(F)C(F)(F)C(F)(F)C(F)(F)F | -3.45
in FC(F)(F)C(F)(F)C(F)(F)C(F)(F)C(F)(F)C(F)(F)F | -3.52
in Fc1c(F)c(F)c(F)c(F)c1F | -4.83
in Fc1ccccc1 | -5.11
in ICI | -3.3
in Ic1ccccc1 | -4.74
in N#CCCCCC#N | -2.96
in NC=O | -1.27
in NCCO | -1.74
in Nc1ccccc1 | -3.52
in O=C1CCCCC1 | -4.63
in O=C1CCCO1 | -3.22
in O=CN1CCOCC1 | -3.04
in OCCCCCO | -3.06
in OCCCCO | -2.87
in OCCCO | -2.59
in OCCOCCO | -2.35
in OCCOCCOCCOCCO | -2.71
in OCc1ccccc1 | -3.81
in S=C=S | -5.53
in c1ccc2ncccc2c1 | -4.22
in c1ccc(COCc2ccccc2)cc1 | -4.28
in c1ccccc1 | -5.25
in c1ccncc1 | -4.49

CCCCCCl
Conditions | solvation free energy, 298 K [kcal/mol]
in C1CCOC1 | -5.67
in C1CCOCC1 | -5.23
in C1COCCO1 | -4.94
in C=CCCCCCCCCCCCCCC | -4.46
in CC(C)=O | -4.86
in CCCCCC | -4.76
in CCCCCCCCC=CCCCCCCCC(=O)OCC(COC(=O)CCCCCCCC=CCCCCCCCC)OC(=O)CCCCCCCC=CCCCCCCCC | -4.62
in CCCCCCCCCCCCCCCC | -4.39
in CCCCOCCCC | -4.79
in O | -0.06

Oc1cccc2ccccc12
Conditions | solvation free energy, 298 K [kcal/mol]
in CC(C)CC(C)(C)C | -8.54
in CCCCCC | -8.71
in CCCCCCC | -8.75
in CCCCCCCC | -8.73
in CCCCCCCCCC | -8.76
in O | -7.93
